The values that follow come from patent US7018824B2, “Mannosyl transfer with regeneration of GDP-mannose” (The Scripps Research Institute, priority 1993, dated 2006).

Read-outs that look alike come from different tables or passages of the source. Peptide text beside a SMILES is read from it. * marks the point of attachment. X1 = OCC1OC(*)C(O)C(O)C1O; Cbz = O=C(OCc1ccccc1)* Some results are limits rather than exact numbers.

The target of data set [1] is T1, Recombinant α1,2-Mannosyltransferase (Saccharomyces cerevisiae, UniProt P27809).
T1 construct: made in house; host or cells: E. coli XL1-Blue, periplasmic fraction
T1 sequence (P27809 31-442): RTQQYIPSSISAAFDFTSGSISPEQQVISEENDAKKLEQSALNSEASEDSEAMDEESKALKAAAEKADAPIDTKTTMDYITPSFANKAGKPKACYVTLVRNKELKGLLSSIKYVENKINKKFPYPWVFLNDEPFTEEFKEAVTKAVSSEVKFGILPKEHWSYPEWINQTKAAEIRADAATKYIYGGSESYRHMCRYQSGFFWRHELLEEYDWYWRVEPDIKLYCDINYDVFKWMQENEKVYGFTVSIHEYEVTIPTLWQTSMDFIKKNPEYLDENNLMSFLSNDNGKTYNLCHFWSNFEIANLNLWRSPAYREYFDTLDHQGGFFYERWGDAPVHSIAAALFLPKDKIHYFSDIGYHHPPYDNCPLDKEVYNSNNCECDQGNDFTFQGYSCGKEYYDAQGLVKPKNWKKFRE
The data set can be described thus: Substrate specificity and enzyme kinetics of the mannosyltransfer reaction (GDP-Man + acceptor). In kind it is biochemical. Conditions: for Vrelative: calculated as the ratio of Vmax, ManαOMe = 1.0; for substrate (acceptor) quality in words: 150 mM substrate, 3.3 mM GDP-Man. How it is done:
GDP-Man (^14C) (10 mM, 10 mL), α-methyl mannopyranoside (500 mM, 10 μL) and the enzyme solution (10 μL) were mixed in a buffer containing 50 mM HEPES (pH 7.2), 0.1 percent Triton and 10 mM MnCl2. The mixture was incubated at 30.0° C. for one hour. The unreacted GDP-mannose was removed by adding QAE-Sephadex (400 μL) to the solution. After the resin was removed by centrifugation, the radioactivity of the solution was counted in 10 mL of scintillation fluid. Controls were carried out by omitting the acceptor or the enzyme. The substrate specificity was determined in a 30 μL assay solution containing 150 mM substrate, 3.3 mM GDP-Man, overproduced α1,2-ManT, 50 mM HEPES (pH 7.2), 0.1 percent Triton and 10 mM MnCl2. The mixture was incubated at 30° C. for 1 hour and the formation of product was determined by the radioactivity assay. Initial velocities were measured as described in the enzyme assay at various concentrations of acceptors for kinetic studies. From the Lineweaver-Burk plots of the data, Km and Vmax were determined.

For data set [2], the system named is native α1,2-mannosyltransferase. The settings on record: native enzyme, literature value for comparison; cited from earlier work.
Data set [3] is described as follows: Organic solvent effect study on the mannosyltransfer reaction. It is filed as biochemical. How it is done:
GDP-Man (^14C) (10 mM, 10 μL) and methyl mannopyranoside (500 mM, 10 μL) were mixed with a certain volume of an organic solvent and H2O to achieve the desired organic solvent concentration. The enzyme (10 μL) was then added to the mixture. The solution was incubated at 30.0° C. for 1 hour. The enzyme activity was measured as described in the enzyme assay section.

Data set [4] in a line: Enzyme stability study. It is filed as physicochemical. Conditions: after four days at 20° C. in 100 mM Tris-HCl, 5 mM MgCl2 buffer, pH 7.4. How it is done: The enzyme was incubated at room temperature in 100 mM Tris-HCl buffer, 5 mM MgCl2, pH 7.4, containing 0.5 mM dithiothreitol. At different time intervals, 10 μL aliquots were taken and assayed for mannosyltransferase activity as described above.

Data set [5] can be described thus: α1,2-Mannosyltransferase activity assay. Conditions: after Superose and Mono Q FPLC purification; one unit transfers 1.0 μmol mannose per minute at 30° C. In kind it is biochemical. The protocol: GDP-Man (^14C) (10 mM, 10 mL), α-methyl mannopyranoside (500 mM, 10 μL) and the enzyme solution (10 μL) were mixed in a buffer containing 50 mM HEPES (pH 7.2), 0.1 percent Triton and 10 mM MnCl2. The mixture was incubated at 30.0° C. for one hour. The unreacted GDP-mannose was removed by adding QAE-Sephadex (400 μL) to the solution. After the resin was removed by centrifugation, the radioactivity of the solution was counted in 10 mL of scintillation fluid. Controls were carried out by omitting the acceptor or the enzyme.

The mark [6] stands for this setting: acceptor substrate of recombinant enzyme, read-out: Km value.
Where [7] appears, read: acceptor with GDP-Man, Lineweaver-Burk plots, 30° C., pH 7.2, read-out: Km (acceptor).

In the case of `CO[C@H]1O[C@H](CN=[N+]=[N-])[C@@H](O)[C@H](O)[C@@H]1O` [Compound 5, 6-Azido-6-deoxy-ManαOMe], the Vrelative in data set [1] (acceptor with GDP-Man) is listed as 0.02. The “substrate (acceptor) quality in words” value in data set [1] (recombinant α1,2-ManT) is “poor substrates”.

Regarding `O=C[C@@H](O)[C@@H](O)[C@@H](O)[C@H](O)CO` [D-talose, reference compound], the “substrate (acceptor) quality in words” value in data set [1] (recombinant α1,2-ManT) was “not substrates”.

With `CO[C@H]1O[C@H](CO)[C@@H](O)[C@H](O)[C@@H]1O` [Compound 1, α-methylmannopyranoside, reference compound], the Km in data set [1] (setting [6]) and in data set [1] (setting [7]) was 57 mM throughout. Besides, the Vrelative in data set [1] (acceptor with GDP-Man) was 1.0.

In the case of `CO[C@H]1O[C@H](C)[C@@H](O)[C@H](O)[C@@H]1O` [Compound 4, Methyl 6-Deoxy-α-D-mannopyranoside], the Vrelative in data set [1] (acceptor with GDP-Man) was 0.06. The “substrate (acceptor) quality in words” value in data set [1] (recombinant α1,2-ManT) was “poor substrates”.

Take `O=C[C@@H](O)[C@H](O)[C@H](O)CO` [D-arabinose, reference compound]: the “substrate (acceptor) quality in words” value in data set [1] (recombinant α1,2-ManT) was “not substrates”.

With `OC[C@H]1NC[C@@H](O)[C@@H](O)[C@@H]1O` [1-deoxymannojirimycin, reference compound], in data set [1] (recombinant α1,2-ManT), the “inhibitor of α1,2-ManT in words” value is “nor an inhibitor” and the “substrate (acceptor) quality in words” value is given as “neither a substrate”.

On to “Boc-Try-Thr(α-Man)-Val-OMe [Compound 10]”, for which the Km in data set [1] (setting [6]) is 0.7 mM. Also, the Km in data set [1] (setting [7]) worked out at 0.7 mM. Moreover, the Vrelative in data set [1] (acceptor with GDP-Man) is recorded as 0.35. Moreover, in data set [1] (ratio of Km values), the “Km, times less than that of Compound 7” value was found to be 10 times and the “Km, times smaller than that of ManαOMe (Compound 1)” value is 80 times.

As for `O=C[C@@H](O)[C@@H](O)[C@H](O)CO` [D-lyxose, reference compound], the “substrate (acceptor) quality in words” value in data set [1] (recombinant α1,2-ManT) is on record as “not substrates”.

As to Cbz-Thr(α-Man)-Val-OMe [Compound 7], the Km in data set [1] (setting [7]) came out at 7.8 mM. Further, in data set [1] (acceptor with GDP-Man), the Vrelative is given as 0.71. Moreover, the “substrate (acceptor) quality in words” value in data set [1] (recombinant α1,2-ManT) was “comparable with ManαOMe as an acceptor”.

Take `CC(NC(=O)CNC(=O)C(NC(=O)C(NC(=O)OCc1ccccc1)C(C)OC1OC(CO)C(O)C(O)C1O)C(C)C)C(N)=O` (stereo not drawn) [Compound 9, Cbz-Thr(α-Man)-Val-Gly-Ala-NH2] (Cbz-T(X1)VGA-NH2; configuration not given here): the Vrelative in data set [1] (acceptor with GDP-Man) was 0.55. In addition, in data set [1] (recombinant α1,2-ManT), the “substrate (acceptor) quality in words” value was “good substrates”.

On to `O=[N+]([O-])c1ccc(O[C@H]2O[C@H](CO)[C@@H](O)[C@H](O)[C@@H]2O)cc1` [Compound 13, p-nitrophenyl α-mannopyranoside, reference compound], for which the Vrelative in data set [1] (acceptor with GDP-Man) is reported as 0.00. For the same molecule, the “substrate (acceptor) quality in words” value in data set [1] (recombinant α1,2-ManT) was “not substrates”.

Turning to `O=C[C@@H](O)[C@@H](O)[C@H](O)[C@H](O)CO` [Compound 2, mannose], the Km in data set [2] was 100 mM. The “Km (acceptor)” value in data set [1] (acceptor with GDP-Man, Lineweaver-Burk plots, 30° C., pH 7.2) turned out to be 193 mMO. Also, the Vrelative in data set [1] (acceptor with GDP-Man) is 0.46.

Turning to `CO[C@H]1O[C@H](CO)[C@@H](O)[C@H](O)[C@@H]1O[C@H]1O[C@H](CO)[C@@H](O)[C@H](O)[C@@H]1O` [Compound 3, Manα1,2ManαOMe], the Km in data set [1] (setting [6]) and in data set [1] (setting [7]) was 28 mM throughout. In addition, the Vrelative in data set [1] (acceptor with GDP-Man) was 0.62.

For the molecule `CO[C@H]1O[C@H](CN)[C@@H](O)[C@H](O)[C@@H]1O` [Compound 6, 6-Amino-6-deoxy-ManαOMe], the Vrelative in data set [1] (acceptor with GDP-Man) is 0.07. Moreover, the “substrate (acceptor) quality in words” value in data set [1] (recombinant α1,2-ManT) is given as “poor substrates”.

For `CO[C@H]1O[C@H](COS(=O)(=O)c2ccc(C)cc2)[C@@H](O)[C@H](O)[C@@H]1O` [Compound 12, 6-Tosyl-ManαOMe], the Vrelative in data set [1] (acceptor with GDP-Man) is recorded as 0.00.

Take `COC(=O)C(NC(=O)C(NC(=O)OCc1ccccc1)C(C)OC1OC(CO)C(O)C(O)C1OC1OC(CO)C(O)C(O)C1O)C(C)C` (stereo not shown) [Compound 11, Cbz-Thr(αManα1,2Man)-Val-OMe]: in data set [1] (setting [7]), the Km is 26 mM. Further, in data set [1] (acceptor with GDP-Man), the Vrelative was 0.17.

With `O=C[C@@H](O)[C@H](O)[C@H](O)[C@H](O)CO` [D-altrose, reference compound], the “substrate (acceptor) quality in words” value in data set [1] (recombinant α1,2-ManT) is “not substrates”.

For the molecule `O=C[C@@H](O)[C@H](O)[C@@H](O)[C@H](O)CO` [D-idose, reference compound], the “substrate (acceptor) quality in words” value in data set [1] (recombinant α1,2-ManT) is “not substrates”.

Take `COC(=O)C(NC(=O)C(N)C(C)OC1OC(CO)C(O)C(O)C1O)C(C)C` (stereo not drawn) [Compound 8, Thr(α-Man)-Val-OMe]: the Vrelative in data set [1] (acceptor with GDP-Man) is listed as 0.68. In data set [1] (recombinant α1,2-ManT), the “substrate (acceptor) quality in words” value is “good substrates”.

B1: recombinant α1,2-ManT: water-dispersible recombinant α1,2-mannosyltransferase catalytic domain, residues about 31-442 of the S. cerevisiae enzyme, expressed in E. coli (protein)
chain: RTQQYIPSSISAAFDFTSGSISPEQQVISEENDAKKLEQSALNSEASEDSEAMDEESKALKAAAEKADAPIDTKTTMDYITPSFANKAGKPKACYVTLVRNKELKGLLSSIKYVENKINKKFPYPWVFLNDEPFTEEFKEAVTKAVSSEVKFGILPKEHWSYPEWINQTKAAEIRADAATKYIYGGSESYRHMCRYQSGFFWRHELLEEYDWYWRVEPDIKLYCDINYDVFKWMQENEKVYGFTVSIHEYEVTIPTLWQTSMDFIKKNPEYLDENNLMSFLSNDNGKTYNLCHFWSNFEIANLNLWRSPAYREYFDTLDHQGGFFYERWGDAPVHSIAAALFLPKDKIHYFSDIGYHHPPYDNCPLDKEVYNSNNCECDQGNDFTFQGYSCGKEYYDAQGLVKPKNWKKFRE
Consider B1, for which the remaining activity result in data set [3] (10-percent DMF-buffer solution) is recorded as “about 80%”; in data set [3] (10 percent acetonitrile-buffer solution), “about 50%”. Also, the loss of activity in data set [3] (DMF or acetonitrile increased to 20 percent) is 95%. In data set [3] (acetone-buffer solution), this molecule had a tolerated acetone concentration of at most 20%. The tolerated methanol concentration result in data set [3] (methanol-buffer solution) is “up to 30%”. Besides, the activity retained result in data set [4] is recorded as “more than 90%”. For the same molecule, the specific activity result in data set [5] is “about 1 unit/mg”.

By Km is commonly meant the concentration of substrate that gives half-maximal velocity.
